Data from patent US10239831B2, “Method for producing bis(3-aminophenyl)disulfides and 3-aminothiols” (BAYER CROPSCIENCE AG, priority 2012, dated 2019).

Assay: log P determination
Type: physicochemical
Details: for chromatographic logP: HCOOH (acidic); for logP: neutral

Compound | chromatographic logP | logP
O=[N+]([O-])c1cc(SSc2cc([N+](=O)[O-])c(Cl)cc2Cl)c(Cl)cc1Cl [Example 5, 1,1′-Disulphanediylbis(2,4-dichloro-5-nitrobenzene)] | 5.69 | 5.64
Nc1cc(SSc2cc(N)c(Cl)cc2Cl)c(Cl)cc1Cl [Example 14, 3,3′-Disulphanediylbis(4,6-dichloroaniline)] | 5.14 | 4.95
